Test results reported in ChEMBL document CHEMBL2303647, “Data associated with the publication PLoS ONE, 8(3), e57888, (2013) PMID: 23505445. Compounds: GSK PKIS; Assays: NIH NCATS”.

Experiments:
[1] = biological target: Luciferin 4-monooxygenase (Photinus pyralis, UniProt P08659)
Description: GSK_PKIS: Inhibition of Firefly Luciferase (Data from PubChem: AID 652016) [NIH NCATS]

[2] = biological target: T1, Coelenterazine h 2-monooxygenase (Renilla reniformis, UniProt P27652)
T1 sequence (P27652 whole entry): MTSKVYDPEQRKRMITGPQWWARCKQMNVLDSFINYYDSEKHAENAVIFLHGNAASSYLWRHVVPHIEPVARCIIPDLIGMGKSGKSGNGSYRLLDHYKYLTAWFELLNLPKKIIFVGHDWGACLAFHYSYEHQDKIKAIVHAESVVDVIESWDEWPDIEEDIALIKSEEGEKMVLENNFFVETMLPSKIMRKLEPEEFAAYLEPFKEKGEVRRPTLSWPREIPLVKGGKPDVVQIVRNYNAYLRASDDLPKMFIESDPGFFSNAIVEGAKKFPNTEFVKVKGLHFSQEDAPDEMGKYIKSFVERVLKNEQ
Description: GSK_PKIS: Inhibition of Sea Pansy Luciferase (Data from PubChem: AID 652015) [NIH NCATS]

Luciferin 4-monooxygenase, sequence (P08659 whole entry): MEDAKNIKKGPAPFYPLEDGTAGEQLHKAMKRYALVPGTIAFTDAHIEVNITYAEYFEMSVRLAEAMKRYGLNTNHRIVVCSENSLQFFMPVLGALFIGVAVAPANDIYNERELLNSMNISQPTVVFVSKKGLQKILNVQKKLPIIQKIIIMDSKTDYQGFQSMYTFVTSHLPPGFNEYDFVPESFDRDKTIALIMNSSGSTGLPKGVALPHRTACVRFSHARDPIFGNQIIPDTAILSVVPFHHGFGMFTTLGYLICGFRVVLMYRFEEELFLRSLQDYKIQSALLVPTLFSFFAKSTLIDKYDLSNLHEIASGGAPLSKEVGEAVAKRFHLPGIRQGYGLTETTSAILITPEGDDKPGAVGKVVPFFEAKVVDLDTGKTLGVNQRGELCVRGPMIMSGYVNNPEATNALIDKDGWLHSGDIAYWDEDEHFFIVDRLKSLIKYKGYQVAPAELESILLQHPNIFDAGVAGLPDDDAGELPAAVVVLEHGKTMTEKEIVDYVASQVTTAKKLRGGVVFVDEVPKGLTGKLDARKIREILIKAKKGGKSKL

Compound | AC50 ([1]; read-out: AC50) | AC50 ([2]; read-out: AC50) | AC50 [2] | AC50 [1]
Nc1nccc(-c2c(-c3ccc(F)cc3)ncn2CCCN2CCOCC2)n1 | – | – | Phenotype: Inactive; Curve_Description: None | Phenotype: Inactive; Curve_Description: None
CC(C)c1ccc(-c2cc(-c3c[nH]nc3-c3ccccn3)ccn2)cc1 [GW682841X] | – | 1.46 µM | – | Phenotype: Activator; Curve_Description: None
CC(=O)Nc1cccc(C#Cc2cncnc2Nc2ccc(OCc3cccc(F)c3)c(Cl)c2)c1 [GW703087X] | – | – | Phenotype: Inactive; Curve_Description: None | Phenotype: Inactive; Curve_Description: None
COc1ccc2ncn(-c3cc(O[C@H](C)c4ccccc4C(F)(F)F)c(C(N)=O)s3)c2c1 [GSK-317315A] | – | 20.6 µM | – | Phenotype: Inactive; Curve_Description: None
FC(F)(F)c1ccc(-c2nn3ncccc3c2-c2ccnc(Nc3ccc4c(c3)OCCO4)n2)cc1 [GW828525X] | – | – | Phenotype: Inactive; Curve_Description: None | Phenotype: Inactive; Curve_Description: None
COc1ccc(-c2oc3ncnc(N)c3c2-c2ccc(NC(=O)Nc3cc(C(F)(F)F)ccc3F)cc2)cc1.Cl [GW768505A] | – | – | Phenotype: Inactive; Curve_Description: None | Phenotype: Inactive; Curve_Description: None
CS(=O)(=O)CCNCc1nc(-c2ccc3ncnc(Nc4ccc(OCc5cccc(C(F)(F)F)c5)cc4)c3c2)cs1.Cl [GW569530A] | – | – | Phenotype: Inactive; Curve_Description: None | Phenotype: Inactive; Curve_Description: None
CS(=O)(=O)CCNCc1cc(-c2cc3c(Nc4ccc(OCc5cccc(F)c5)c(Cl)c4)ncnc3s2)cs1 [GSK-300014A] | – | – | Phenotype: Activator; Curve_Description: None | Phenotype: Inactive; Curve_Description: None
COc1cc2ncn(-c3cc(O[C@@H](C)c4ccccc4Cl)c(C(N)=O)s3)c2cc1OC [GSK-237700A] | – | – | Phenotype: Inactive; Curve_Description: None | Phenotype: Inactive; Curve_Description: None
CC1=C(C(=O)Nc2ccc3[nH]nc(C)c3c2)C(c2ccc(C(F)(F)F)cc2)CC(=O)N1 (configuration not stated) [GSK-466314A] | – | – | Phenotype: Inactive; Curve_Description: None | Phenotype: Inactive; Curve_Description: None
O=C(O)C(F)(F)F.O=C(O[C@H]1CN[C@H](C#Cc2cc3ncnc(Nc4ccc(Cc5ccccc5)cc4)c3s2)C1)N1CCOCC1 [GSK-238583A] | – | 23.1 µM | – | Phenotype: Inactive; Curve_Description: None
Cc1ccc(C(=O)NC2CC2)cc1-c1ccc2[nH]ncc2c1 [GW820759X] | 18.3 µM | 20.6 µM | – | –
O=S(=O)(CCOCc1ccc(-c2ccc3ncnc(Nc4ccc(OCc5cccc(F)c5)c(Cl)c4)c3c2)o1)c1ccccc1 [GW615311X] | – | 46.1 µM | – | Phenotype: Inactive; Curve_Description: None
CN1CCC(C(=O)Nc2n[nH]c3nc(-c4ccc(O)cc4)c(Br)cc23)CC1.O=C(O)/C=C\C(=O)O | – | – | Phenotype: Inactive; Curve_Description: None | Phenotype: Inactive; Curve_Description: None
CCn1c(-c2nonc2N)nc2cncc(C(=O)N3CC[C@H](N)C3)c21.Cl | – | – | Phenotype: Inactive; Curve_Description: None | Phenotype: Inactive; Curve_Description: None
CCc1ccc(Oc2nccc(-c3c(-c4ccc(F)cc4)ncn3C3CCNCC3)n2)cc1 | – | – | Phenotype: Inactive; Curve_Description: None | Phenotype: Inactive; Curve_Description: None
CCn1c(-c2nonc2N)nc2c(C#CC(C)(C)O)nc(CN3CCCC3)cc21 [GSK-1000163A] | – | – | Phenotype: Inactive; Curve_Description: None | Phenotype: Inactive; Curve_Description: None
c1cnn2ncc(-c3ccnc(NCCCN4CCOCC4)n3)c2c1 [GW683109X] | 41.1 µM | – | Phenotype: Inactive; Curve_Description: None | –
COC(=O)Nc1nc2cc(Oc3ccc(NC(=O)Nc4cccc(Br)c4)cc3)ccc2[nH]1.Cl [GW694234A] | – | – | Phenotype: Inactive; Curve_Description: None | Phenotype: Inactive; Curve_Description: None
CCc1nccc2c1nc(-c1nonc1N)n2CC | – | – | Phenotype: Inactive; Curve_Description: None | Phenotype: Inactive; Curve_Description: None
CCn1c(-c2nonc2N)nc2c(C#CC(C)(C)O)ncc(OC[C@@H]3CCCN3)c21.O=C(O)C(F)(F)F [GSK-614526A] | – | 18.3 µM | – | Phenotype: Inactive; Curve_Description: None
CC(C)c1ccc2c(c1)NC(=O)/C2=N/Nc1ccc(S(N)(=O)=O)cc1 [GW300653X] | – | – | Phenotype: Inactive; Curve_Description: None | Phenotype: Inactive; Curve_Description: None
CN(c1ccc(NC(=O)NCCN2CCOCC2)cc1)c1ccnc(Nc2ccc(CS(C)(=O)=O)cc2)n1.Cl [GW830365A] | 20.6 µM | – | Phenotype: Inactive; Curve_Description: None | –
C[C@@H](Oc1cc(-n2cnc3ccc(OCC4CCN(C)CC4)cc32)sc1C(N)=O)c1ccccc1Cl [GSK-571989A] | – | 20.6 µM | – | Phenotype: Inactive; Curve_Description: None
CCn1c(-c2nonc2N)nc2ccccc21 [GW549034X] | – | – | Phenotype: Inactive; Curve_Description: None | Phenotype: Inactive; Curve_Description: None
CS(=O)(=O)CCNCc1ccc(-c2ccc3ncnc(Nc4ccc(OCc5ccccc5)c(Br)c4)c3c2)o1.Cl [GW580496A] | 20.6 µM | – | Phenotype: Inactive; Curve_Description: None | –

Now from value to molecule, other results behind:

AC50 ([1]; read-out: AC50) | AC50 ([2]; read-out: AC50) | Compound | AC50 [2] | AC50 [1]
32.6 µM | – | O=C(O)/C=C/C(=O)O.OCCCNc1nccc(-c2c(-c3ccc(F)cc3)nn3cc(C(F)(F)F)ccc23)n1 [GW569293E] | Phenotype: Inactive; Curve_Description: None | –
– | 20.6 µM | CCN(CC)Cc1ccc(Nc2nccc(-c3cnn4ncccc34)n2)cc1 [GW780056X] | – | Phenotype: Inactive; Curve_Description: None
18.3 µM | – | Cl.O=C(O[C@H]1CN[C@H](C#Cc2cc3ncnc(Nc4ccc5c(cnn5Cc5ccccc5)c4)c3s2)C1)N1CCOCC1 [GSK-200398A] | Phenotype: Inactive; Curve_Description: None | –
– | 32.6 µM | NS(=O)(=O)c1ccc(N/C=C2\C(=O)Nc3ccc4ncsc4c32)cc1 [GW297361X] | – | Phenotype: Inactive; Curve_Description: None
– | 36.6 µM | O=C1NC(=O)C(c2cccc(Cl)c2)=C1Nc1ccc(O)c(Cl)c1 | – | Phenotype: Inactive; Curve_Description: None
– | 16.3 µM | NS(=O)(=O)c1ccc(NC=C2C(=O)Nc3ccc4ncsc4c32)cc1 [GW589933X] | – | Phenotype: Inactive; Curve_Description: None
20.6 µM | – | Cl.O=C(Nc1ccc(Oc2ccc3[nH]c(NC(=O)c4ccco4)nc3c2)cc1)Nc1cc(C(F)(F)F)ccc1F [GW683134A] | Phenotype: Inactive; Curve_Description: None | –
13 µM | – | COC(=O)Nc1nc2ccc(Oc3ccc(NC(=O)Nc4cc(C(F)(F)F)ccc4F)cc3)cc2s1.Cl [GW693917A] | Phenotype: Inactive; Curve_Description: None | –
14.6 µM | 20.6 µM | Cn1cc(C=C2C(=O)Nc3cccnc32)c2ccccc21 [GW441756X] | – | –
41.1 µM | – | CC(C)(CO)CNC(=O)c1ccc2c(c1)/C(=N/Nc1ccc(S(N)(=O)=O)cc1)C(=O)N2 [GW301784X] | Phenotype: Inactive; Curve_Description: None | –
5.8 µM | – | COc1cc(/C=N/Nc2ncnc3c2cnn3C(C)C)ccc1O [GW644007X] | Phenotype: Inactive; Curve_Description: None | –
29.1 µM | – | c1ccc(COc2ccc(Nc3ncnc4ccc(-c5ccco5)cc34)cc2)cc1 [GW284372X] | Phenotype: Inactive; Curve_Description: None | –
41.1 µM | – | CN(C)CCCNc1nccc(-c2c(-c3ccc(F)cc3)nn3cc(C(F)(F)F)ccc23)n1.CS(=O)(=O)O [GW618013A] | Phenotype: Inactive; Curve_Description: None | –
20.6 µM | – | O=C(Nc1n[nH]c2nc(-c3ccco3)c(Br)cc12)C1CC1 | Phenotype: Inactive; Curve_Description: None | –
32.6 µM | – | Fc1ccc(-c2ncn(C3CCNCC3)c2-c2ccnc(Oc3ccc4c(c3)OCO4)n2)cc1 | Phenotype: Inactive; Curve_Description: None | –
– | 20.6 µM | COc1ccc(-c2coc3ncnc(N)c23)cc1 [GW642125X] | – | Phenotype: Inactive; Curve_Description: None
29.1 µM | – | Cc1ccc(C(=O)NC2CCC2)cc1-c1ccc(C(=O)NCC2CC2)cc1 [GW782912X] | Phenotype: Inactive; Curve_Description: None | –
41.1 µM | 8.19 µM | COc1ccccc1-c1cc(/C=C2\C(=O)Nc3ncc(Br)cc32)cc(Br)c1O [GW442130X] | – | –
16.3 µM | – | O=C(Nc1n[nH]c2cc(-c3cc(F)ccc3F)ccc12)C1CC1 | Phenotype: Inactive; Curve_Description: None | –
20.6 µM | – | O=C(Nc1n[nH]c2nc(-c3ccc(O)cc3)c(Br)cc12)C1CC1 | Phenotype: Inactive; Curve_Description: None | –
– | 25.9 µM | C[C@@H](Oc1cc(-n2cnc3ccc(OCC4CCN(C)CC4)cc32)sc1C(N)=O)c1ccccc1C(F)(F)F [GSK-326090A] | – | Phenotype: Inactive; Curve_Description: None
– | 36.6 µM | Nc1ncc(-c2cccc(S(N)(=O)=O)c2)c2scc(-c3ccc(F)c(Cl)c3)c12 [GW856804X] | – | Phenotype: Inactive; Curve_Description: None
16.3 µM | 23.1 µM | CNC(=O)c1cncc(/C=C/c2c(Cl)cccc2Cl)c1 [GW445014X] | – | –
16.3 µM | 18.3 µM | CN(C)c1cc2c(Nc3ccc4nc(Cc5ccccc5)[nH]c4c3)ncnc2cn1 [GW301888X] | – | –
18.3 µM | 36.6 µM | COc1cc(Nc2nccc(Nc3ccc4c(C)n[nH]c4c3)n2)cc(OC)c1OC [GW612286X] | – | –
